{
  "source": "patent US9987293B2",
  "about": "“Method for treating chronic lymphocytic leukemia” (BIONOMICS LIMITED, priority 2014, dated 2018)",
  "key": {"[1]": {"test_system": "normal peripheral lymphocytes", "assay": "Toxicity to normal peripheral lymphocytes (PARP cleavage, chromatin condensation, pJNK, Noxa)", "format": "cell-based, human", "experimental": "(§1) Cells were incubated for 10 min with 2 μg/mL. Hoechst 33342 at 37° C. and visualized with a fluorescent microscope. At least 200 cells were scored for each sample. The percentage of cells with condensed chromatin was recorded.\n(§2) Cells were lysed in urea sample buffer [4 mol/L urea, 10% β-mercaptoethanol, 6% SDS, […] (pH 6.8), 0.01% bromphenol blue, and protease/phosphatase inhibitor cocktail] and boiled for 5 min. Proteins were subsequently separated by SDS-PAGE (10 or 15%) and transferred to polyvinylidene difluoride membrane (Millipore). Membranes were blocked with 5% nonfat milk in TBS and 0.05% Tween 20, and were probed with the appropriate primary antibody overnight. Subsequently, membranes were washed in […] and 0.05% Tween 20, and then incubated with secondary antibody conjugated to horseradish peroxidase. Proteins were visualized by enhanced chemiluminescence (Amersham). Actin was used as a loading control in Western blots.\nTo test the potential toxicity of EX2, normal peripheral lymphocytes were isolated from a healthy volunteer and incubated with EX2 alone or in combination with ABT-199."}, "[2]": {"test_system": "CLL cells on L4.5 stroma", "assay": "Apoptosis of CLL cells co-incubated on CD154+ L4.5 stroma", "format": "cell-based, human", "settings": "for sensitivity of stroma co-incubated CLL cells: co-incubation on stroma for 24 h", "experimental": "(§3) CLL cells were obtained from consented patients at the Norris Cotton Cancer Center. Cells were purified by centrifugation in Ficoll-Paque PLUS from 10 ml, of blood. Lymphocytes were plated in RPMI 1640 plus 10% serum at 1×10^6 cells/mL after three washes in PBS+2 mmol/L EDTA. Cells were either incubated immediately with reagents or after 24 h incubation with confluent layers of CD154+ stromal cells (L 4.5) at a ratio of 5:1.\nas §1\nThe experiments above have shown that CLL cells are usually very sensitive to EX2. However, these cells were isolated from peripheral blood, and the real problem to curing CLL is to be able to kill cells that reside in the lymph node or […] marrow niche. To mimic this niche, we have used L4.5 cells that express CD154. […] However, when ABT-199 and EX2 were combined, marked apoptosis was again observed. For example, 100 nM ABT-199 alone induced about 10% apoptosis, whereas when combined with 1 μM EX2, >60% apoptosis was observed within 6 h. The combination of 1 μM EX2 and 1 μM ABT-199 induced about 80% apoptosis. This patient's cells appeared to be more resistant than those summarized in FIG. 2 which may therefore understate the impact of this combination. In cells from another patient that were more sensitive to EX2 alone we observed greater sensitization to ABT-199; these cells were not tested on stroma."}, "[3]": {"test_system": "CLL cells", "assay": "Chromatin condensation (Hoechst 33342) apoptosis in freshly isolated CLL cells", "format": "cell-based, human", "settings": "6 h", "experimental": "as §3, §1\n(§4) To determine whether EX2 induces apoptosis, freshly isolated CLL cells were incubated in media containing 0-1 μM EX2. Chromatin condensation was scored as a classic marker of apoptosis. Apoptosis was observed following incubation of cells with 10-100 nM EX2 and this also correlated with the cleavage of PARP (FIG. 1). Protein lysates were also assessed for both pJNK and NOXA, both of which were increased by the same concentrations of EX2."}, "[4]": {"test_system": "Jeko-1 cells", "assay": "Kinetics of apoptosis in Jeko-1 cells (Western blot)", "format": "cell-based", "settings": "Jeko-1 cells (FIG. 7)", "experimental": "as §2\nIt was noted that in many of these experiments, PARP cleavage was incomplete at 6 h. To determine whether greater apoptosis occurred at later time points, we incubated cells for up to 24 h with EX2 (FIG. 6)."}, "[5]": {"test_system": "CLL cells", "assay": "Immunoblot of PARP cleavage, pJNK and Noxa in CLL cells", "format": "cell-based, human", "experimental": "as §3, §2, §4"}},
  "data": [
    {"smiles": "CC1(C)CCC(CN2CCN(c3ccc(C(=O)NS(=O)(=O)c4ccc(NCC5CCOCC5)c([N+](=O)[O-])c4)c(Oc4cnc5[nH]ccc5c4)c3)CC2)=C(c2ccc(Cl)cc2)C1", "note": "[ABT-199, reference compound]", "values": [
      {"measurement": "PARP cleavage in normal lymphocytes", "setting": "[1]; healthy volunteer cells, ABT-199 alone", "result": "slight PARP cleavage"},
      {"measurement": "chromatin condensation in normal lymphocytes", "setting": "[1]; healthy volunteer cells, ABT-199 with or without EX2", "result": "no chromatin condensation was observed"},
      {"measurement": "apoptosis, 100 nM alone", "setting": "[2]; CLL cells on stroma, 100 nM ABT-199 alone", "result": "about 10%"},
      {"measurement": "sensitivity of stroma co-incubated CLL cells", "setting": "[2]", "result": "marked resistance"}
    ]},
    {"smiles": "CCc1cnn2c(NCc3ccc[n+]([O-])c3)cc(N3CCCC[C@H]3CCO)nc12", "note": "[Dinaciclib, reference compound]", "values": [
      {"measurement": "apoptosis in normal leukocytes", "setting": "[1]; healthy volunteer cells, dinaciclib alone", "result": "induced some apoptosis"}
    ]},
    {"smiles": "COc1cc(C(=O)c2c(C)oc3c(OP(=O)([O-])[O-])c(OC)ccc23)cc(OC)c1OC.[Na+].[Na+]", "note": "[EX2, Disodium 6-methoxy-2-methyl-3-(3,4,5-trimethoxybenzoyl)benzofuran-7-yl phosphate]", "values": [
      {"measurement": "effect of EX2 on ABT-199-induced PARP cleavage in normal lymphocytes", "setting": "[1]; EX2 combined with ABT-199", "result": "not increased"},
      {"measurement": "effect of EX2 on dinaciclib-induced apoptosis in normal leukocytes", "setting": "[1]; EX2 combined with dinaciclib", "result": "not increased"},
      {"measurement": "Noxa induction in normal lymphocytes", "setting": "[1]; healthy volunteer cells", "result": "no Noxa was induced"},
      {"measurement": "pJNK in normal lymphocytes", "setting": "[1]; healthy volunteer cells", "result": "activated"},
      {"measurement": "PARP cleavage or chromatin condensation in normal lymphocytes", "setting": "[1]; healthy volunteer cells, single agent, 6 h", "result": "no significant PARP cleavage or chromatin condensation"},
      {"measurement": "concentration at which apoptosis (chromatin condensation) was observed", "setting": "[3]; freshly isolated CLL cells, 0-1 μM, correlated with PARP cleavage", "result": "10 to 100", "unit": "nM"},
      {"measurement": "relative potency as inducer of apoptosis", "setting": "[3]; versus vinblastine and combretastatin A4, chromatin condensation and PARP cleavage", "result": "more potent inducer of apoptosis"},
      {"measurement": "apoptosis, single agent at 1 μM", "setting": "[2]; CLL cells co-cultured on L4.5 stroma 24 h, 1 μM", "result": "no apoptosis observed"},
      {"measurement": "apoptosis, combination of 1 μM EX2 and 1 μM ABT-199", "setting": "[2]; CLL cells on stroma", "result": "about 80%"},
      {"measurement": "apoptosis, 1 μM EX2 combined with 100 nM ABT-199", "setting": "[2]; CLL cells on stroma, within 6 h", "result": "> 60", "unit": "%"},
      {"measurement": "sensitivity of stroma co-incubated CLL cells", "setting": "[2]", "result": "markedly resistant"},
      {"measurement": "time by which apoptosis was complete", "setting": "[4]", "result": "up to 24 h"},
      {"measurement": "time to activation of JNK", "setting": "[5]; CLL cells", "result": "less than one"},
      {"measurement": "PARP cleavage over time", "setting": "[5]; CLL cells incubated up to 24 h (FIG. 6), by 24 h", "result": "almost total cleavage of PARP"},
      {"measurement": "PARP cleavage in presence of JNK inhibitor VIII", "setting": "[5]; CLL cells, 0-1 μM EX2 with JNK inhibitor VIII", "result": "completely prevented"},
      {"measurement": "lowest concentration at which apoptosis began to appear", "setting": "[5]; CLL cells, 6 h, FIG. 2A, pJNK and Noxa correlated", "result": 5, "unit": "nM"},
      {"measurement": "JNK activation and PARP cleavage after 1 h pulse treatment", "setting": "[5]; CLL cells, five hours after removing EX2, versus continuous incubation", "result": "still observed albeit slightly less"},
      {"measurement": "pJNK and NOXA levels", "setting": "[5]; protein lysates of CLL cells, same concentrations (10-100 nM)", "result": "increased"}
    ]}
  ]
}
